Data from patent publication US20250154288A1, “CYTOTOXICITY TARGETING CHIMERAS FOR C-C CHEMOKINE RECEPTOR 2-EXPRESSING CELLS” (GLAXOSMITHKLINE INTELLECTUAL PROPERTY DEVELOPMENT LIMITED, priority 2022, published 2025).
Structures can show the parent of a compound that is named as a salt.

Experiment: Blood drug concentration analysis (LC-MS/MS) in In Vivo Depletion Assay
Conditions: human CCR2 (hCCR2) knock-in, 057 background, mouse, whole blood, hCCR2 knock-in mice, IV 0.1 mpk compound + 10 mpk anti-cotinine antibody, 48 hours post-dose, read-out: Exposure of Compound of Formula (I) 48 hours post-dose
Method: Human CCR2 (hCCR2) knock-in mice (057 background) were dosed intravenously with a PBS solution containing a compound of Formula (I) to measure depletion of CCR2 expressing cells in peripheral blood. Peripheral blood from IV dosed mice was also analyzed to determine PK properties of the ARM compounds of Formula (I).
Administration to Animal: Solution formulation of antibody and compound of Formula (I) was injected (bolus injection) to the restrained mouse in the right/left lateral tail vein. Animals were dosed with 0.1 milligram per kilogram (mpk) of the compound of Formula (I) and 10 mpk of the anti-cotinine antibody.
Collection of Blood for PK: Blood was collected at time points 0.25 hour, 2 hours, and […] following administration (50 μL/time point) through retro-orbital bleeding under mild isoflurane anesthesia.
Terminal bleeding at end of experiment (48 hr): Approximately 250 μL of blood in K2EDTA tube and approximately 250 μL of blood in SST (serum separation tube) was collected from each mouse through retro-orbital bleeding under deep isoflurane anesthesia. After bleeding, each mouse was sacrificed by cervical dislocation. The blood distribution at termination was determined as follows: • For PK: 50 μL of K2EDTA blood was transferred to another tube for PK • Flow cytometry: Remaining blood (˜200 μL) was used for flow cytometry analysis. • For serum collection: serum separator tubes (BD) were centrifuged at 4° C., 5000 rpm for 15 minutes. Approximately 100 μL serum was separated and stored at −80° C. for further usage. • Blood drug concentration: Samples collected at the various timepoints (0.25 hr, 2 hr, 24 and 48 hr) were analyzed to determine blood drug concentration.
Drug concentration in blood samples was determined by an LC-MS/MS-based bioanalytical method developed at Syngene. Samples were analyzed on Q-Trap, API-5500 LC-MS/MS system coupled with Exion UHPLC system from SCIEX, USA operated in multiple reaction monitoring mode employing electrospray ionization technique in positive polarity. Analyte and internal standard peaks were resolved on Synergi Polar, 75×2.0 mm, 4μ column using mobile phase 10 mM Ammonium acetate in Milli-Q water as phase A and 0.1% Formic acid in acetonitrile as Phase B. Gradient elution was performed with initial composition 95% Phase A at 0.0 min, holding it for 0.2 minutes, ramping to 5% by 1.0 minute, keeping the same for next 0.5 minutes and coming back to 95% by 1.6 minutes. The total run time was 2 minutes.
Working dilutions for calibration curve and quality control standards were prepared by serially diluting 20 mg/mL stock solution with DMSO. Spiked concentrations for calibration curve in the whole blood ranged from 1 ng/mL to 1000 ng/mL. The working solution of internal standard (Verapamil, 25 ng/mL) was prepared in acetonitrile. 10 μL of the study sample and calibration curve, quality control, and blank whole blood samples were aliquoted in 96 deep well plates for processing. 10 μL of Milli-Q water was added to all the samples and briefly vortexed to initiate complete hemolysis. 10 μL of 20 mM dithiothreitol (OTT) was added to all the samples and incubated for 30 minutes at 37° C. The addition of DTT enhanced the recovery of ARM compounds of Formula (I) from the biological matrix. 300 μL of working internal standard solution was added to all samples except total blank and wash samples, where 300 μL of acetonitrile was added. All the samples were vortex mixed for 5 minutes, followed by centrifugation at 4000 rpm for 10 minutes at 4° C. Supernatants were transferred to the loading plate and injected 3 μL to LC-MS/MS system for analysis. The results are shown below in Table 4 and are reported as compound exposure 48 hours post-dose

Row | Structure (SMILES) | concentration at 48 h [ng/mL]
1 | CO[C@@H]1COCC[C@@H]1N[C@@H]1CC[C@](CCCNC(=O)CCOCCOCCOCCOCCOCCOCCOCCOCCOCCOCCOCCOCCNC(=O)[C@H]2CC(=O)N(C)[C@@H]2c2cccnc2)(C(=O)N2CCc3ncc(C(F)(F)F)cc3C2)C1 [Example 1, (2S,3S)—N-(43-((1S,3R)-3-(((3S,4S)-3-methoxytetrahydro-2H-pyran-4-yl)amino)-1-(3-(trifluoromethyl)-5,6,7,8-tetrahydro-1,6-naphthyridine-6-carbonyl)cyclopentyl)-39-oxo-3,6,9,12,15,18,21,24,27,30,33,36-dodecaoxa-40-azatritetracontyl)-1-methyl-5-oxo-2-(pyridin-3-yl)pyrrolidine-3-carboxamide] | 55.7
2 | CO[C@@H]1COCC[C@@H]1N[C@@H]1CC[C@](CCCNC(=O)[C@H]2CC[C@@H](NC(=O)CCCO[C@H]3CC[C@@H](OCCNC(=O)[C@H]4CC(=O)N(C)[C@@H]4c4cccnc4)CC3)CC2)(C(=O)N2CCc3ncc(C(F)(F)F)cc3C2)C1 [Example 4, (2S,3S)-N-(2-(((1S,4R)-4-(4-(((1R,4S)-4-((3-((1S,3R)-3-(((3S,4S)-3-Methoxytetrahydro-2H-pyran-4-yl)amino)-1-(3-(trifluoromethyl)-5,6,7,8-tetrahydro-1,6-naphthyridine-6-carbonyl)cyclopentyl)propyl)carbamoyl)cyclohexyl)amino)-4-oxobutoxy)cyclohexyl)oxy)ethyl)-1-methyl-5-oxo-2-(pyridin-3-yl)pyrrolidine-3-carboxamide, Formic acid salt] | 26.6
3 | CO[C@@H]1COCC[C@@H]1N[C@@H]1CC[C@](CCCNC(=O)CCOCCOCCO[C@H]2CC[C@H](OCCNC(=O)[C@H]3CC(=O)N(C)[C@@H]3c3cccnc3)CC2)(C(=O)N2CCc3ncc(C(F)(F)F)cc3C2)C1 [Example 20, ((2S,3S)—N-(2-(((1r,4S)-4-(2-(2-(3-((3-((1S,3R)-3-(((3S,4S)-3-Methoxytetrahydro-2H-pyran-4-yl)amino)-1-(3-(trifluoromethyl)-5,6,7,8-tetrahydro-1,6-naphthyridine-6-carbonyl)cyclopentyl)propyl)amino)-3-oxopropoxy)ethoxy)ethoxy)cyclohexyl)oxy)ethyl)-1-methyl-5-oxo-2-(pyridin-3-yl)pyrrolidine-3-carboxamide, Formic acid salt] | 74.6
4 | CO[C@@H]1COCC[C@@H]1N[C@@H]1CC[C@](COCCNC(=O)[C@H]2CC[C@H](NC(=O)CCCO[C@H]3CC[C@H](OCCNC(=O)[C@H]4CC(=O)N(C)[C@@H]4c4cccnc4)CC3)CC2)(C(=O)N2CCc3ncc(C(F)(F)F)cc3C2)C1 [Example 11, (2S,3S)-N-(2-(((1R,4S)-4-(4-(((1S,4R)-4-((2-(((1S,3R)-3-(((3S,4S)-3-Methoxytetrahydro-2H-pyran-4-yl)amino)-1-(3-(trifluoromethyl)-5,6,7,8-tetrahydro-1,6-naphthyridine-6-carbonyl)cyclopentyl)methoxy)ethyl)carbamoyl)cyclohexyl)amino)-4-oxobutoxy)cyclohexyl)oxy)ethyl)-1-methyl-5-oxo-2-(pyridin-3-yl)pyrrolidine-3-carboxamide] | 85.1
5 | CO[C@@H]1COCC[C@@H]1N[C@@H]1CC[C@](CCCNC(=O)[C@H]2CC[C@@H](NC(=O)CCOCCOCCOCCNC(=O)[C@H]3CC(=O)N(C)[C@@H]3c3cccnc3)CC2)(C(=O)N2CCc3ncc(C(F)(F)F)cc3C2)C1 [Example 17, (2S,3S)—N-(2-(2-(2-(3-(((1R,4s)-4-((3-((1S,3R)-3-(((3S,4S)-3-Methoxytetrahydro-2H-pyran-4-yl)amino)-1-(3-(trifluoromethyl)-5,6,7,8-tetrahydro-1,6-naphthyridine-6-carbonyl)cyclopentyl)propyl)carbamoyl)cyclohexyl)amino)-3-oxopropoxy)ethoxy)ethoxy)ethyl)-1-methyl-5-oxo-2-(pyridin-3-yl)pyrrolidine-3-carboxamide, Formic acid salt] | 28.3
